Active and inactive are the calls of the source.
Assays:
[1] = viability of PTEN-deleted HCT116 cells – cell-based, HCT116 PTEN knockout, dose response (AID 1047); format: functional;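 further: HCT116 colon tumor cells with PTEN knocked out; cells exposed to compound for 60 hours before readout; potency for loss of cell viability measured by luminescence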
[2] = viability of HCT116 lacking mutant beta-catenin – cell-based, human colon tumor, dose response (AID 1045); format: functional;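 further: HCT116 colon tumor cells with beta catenin knocked out; cells exposed to compound for 60 hours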
[3] = target: T1, Polyadenylate-binding protein 1 (Homo sapiens, UniProt P11940); assay: MLLE domain peptide-binding blockers, IC50 – biochemical, fluorescence polarization, FITC-PAM2 peptide, dose response (AID 602259); format: functional; conditions: read-out: IC50_Mean
T1 sequence (P11940 whole entry, the tested form may be a part): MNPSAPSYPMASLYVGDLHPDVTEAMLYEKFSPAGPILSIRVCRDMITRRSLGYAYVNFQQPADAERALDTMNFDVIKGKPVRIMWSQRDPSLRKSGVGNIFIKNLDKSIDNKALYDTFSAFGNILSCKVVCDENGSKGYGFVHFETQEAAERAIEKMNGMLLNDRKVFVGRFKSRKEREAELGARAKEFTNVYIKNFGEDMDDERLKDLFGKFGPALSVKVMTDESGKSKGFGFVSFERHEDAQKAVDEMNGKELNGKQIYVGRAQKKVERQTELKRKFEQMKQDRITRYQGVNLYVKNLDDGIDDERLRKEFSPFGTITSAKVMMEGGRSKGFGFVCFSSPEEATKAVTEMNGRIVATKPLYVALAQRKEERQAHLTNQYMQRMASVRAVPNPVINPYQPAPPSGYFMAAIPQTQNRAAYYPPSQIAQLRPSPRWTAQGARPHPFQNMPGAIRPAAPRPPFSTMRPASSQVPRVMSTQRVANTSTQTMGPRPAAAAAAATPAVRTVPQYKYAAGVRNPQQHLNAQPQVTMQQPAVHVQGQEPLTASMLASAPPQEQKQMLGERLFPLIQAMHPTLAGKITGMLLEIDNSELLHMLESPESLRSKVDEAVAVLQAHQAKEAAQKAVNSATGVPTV

cells [4] = format: functional, cell-based
[5] = target: T1, Polyadenylate-binding protein 1; assay: MLLE binding blockers, Cy5 peptide tracer – biochemical, fluorescence polarization, Cy5-PAM2 peptide, secondary, miRNA deadenylation inhibitor project, dose response (AID 602260); format: functional; conditions: read-out: IC50_Mean
cells [6] = format: functional, cell-based; remark: listed apart in the source
BJ [7] = assay: BJ-TERT-LT-ST fibroblast viability loss – cell-based, RAS-independent, luminescence, dose response (AID 1935); format: functional; conditions: Homo sapiens;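 further: BJ fibroblasts immortalized with TERT plus LT and ST oncogenes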
BJ [8] = assay: cells; format: functional, cell-based; conditions: Homo sapiens
[9] = HEK-293T viability loss after treatment – luminescence, T-cell screen hits, cytotoxicity control for TCR NF-kB inhibitor project, dose response (AID 489026); format: functional, cell-based;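 further: cells exposed to compound about 14 hours before the viability readout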
[10] = DRD fibroblast viability loss – cell-based, non-viral oncogenic, luminescence, dose response (AID 1934); format: functional; conditions: Homo sapiens
BJ [11] = assay: BJ-TERT fibroblast viability loss – cell-based, RAS-independent, luminescence, dose response (AID 1933); format: functional; conditions: Homo sapiens
[12] = P. falciparum Dd2 growth inhibitors, dose response, SYBR Green, cherry-picked samples (AID 1159567); format: functional, cell-based
Vero = assay: cells; format: functional; conditions: Chlorocebus sabaeus
[13] = Luminescence Cell-Based Dose Retest to Confirm Inhibitors of Cancer Stem Cells. [Related pubchem assays (depositor defined):AID2717, AID2721]; format: functional; conditions: Homo sapiens
Paired box protein Pax-8 = Paired box protein Pax-8 (Homo sapiens, UniProt Q06710); assay: PAX8 transcriptional activity inhibition in RMG-I – RMG-I cells, luciferase, cherry-pick, dose response (AID 687027); format: functional, cell-based;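 further: luciferase reporter driven by Pax8 target thyroperoxidase promoter measured by SteadyGlo luminescence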
Paired box protein Pax-8, sequence (Q06710 whole entry): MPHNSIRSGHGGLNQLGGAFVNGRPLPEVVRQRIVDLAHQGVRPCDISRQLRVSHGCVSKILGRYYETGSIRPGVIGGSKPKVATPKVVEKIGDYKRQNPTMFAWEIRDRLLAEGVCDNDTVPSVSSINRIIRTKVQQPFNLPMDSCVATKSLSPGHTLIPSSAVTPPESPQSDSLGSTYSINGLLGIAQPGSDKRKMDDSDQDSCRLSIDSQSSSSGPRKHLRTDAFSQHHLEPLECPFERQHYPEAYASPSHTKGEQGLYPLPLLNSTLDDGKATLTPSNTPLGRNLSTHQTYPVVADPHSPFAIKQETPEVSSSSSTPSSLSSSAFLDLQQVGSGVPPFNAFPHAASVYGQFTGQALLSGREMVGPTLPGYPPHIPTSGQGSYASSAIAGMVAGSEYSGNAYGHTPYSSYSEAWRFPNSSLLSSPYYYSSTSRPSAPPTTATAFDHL

[14] = target: T2, Calpain-2 catalytic subunit (Sus scrofa, UniProt P43367); assay: m-calpain protease blockers, concentration series – biochemical, fluorogenic peptide substrate, dose response (AID 1420); format: functional
T2 sequence (P43367 whole entry): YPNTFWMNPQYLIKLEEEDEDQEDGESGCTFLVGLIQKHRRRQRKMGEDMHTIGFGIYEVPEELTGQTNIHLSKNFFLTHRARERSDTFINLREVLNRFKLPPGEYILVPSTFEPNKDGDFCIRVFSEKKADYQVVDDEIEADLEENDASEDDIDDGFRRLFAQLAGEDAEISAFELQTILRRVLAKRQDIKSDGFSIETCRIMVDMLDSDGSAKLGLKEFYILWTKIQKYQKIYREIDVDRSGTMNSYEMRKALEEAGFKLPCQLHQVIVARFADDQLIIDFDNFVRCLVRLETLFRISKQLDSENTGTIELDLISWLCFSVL

[15] = loss of viability in HepG2 cells – cell-based, CellTiter-Glo, cherry-picked, cytotoxicity control for Shn3 inhibitor project, dose response (AID 624134); format: functional
[16] = reduction of Shn3 3'UTR-driven luciferase in osteoblasts – cell-based, Clone20 osteoblasts, firefly luciferase, cherry-picked, dose response (AID 624132); format: functional;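 further: firefly luciferase luminescence from reporter carrying the Shn3 3'UTR in osteoblasts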
INS1 = assay: INS-1E survival protection against cytokine death – cell-based, luminescence, retest, dose response (AID 449756); format: functional; conditions: Rattus norvegicus;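 further: cell death triggered by IL-1 beta plus TNF-alpha plus IFN-gamma mixture; protective hits raise ATP signal compared with cytokine alone wells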
Streptococcus = assay: GAS UMAA2166 growth inhibition – luminescence, BacTiterGlo, counter-screen for streptokinase expression inhibitor project, dose response (AID 1915); format: functional, organism-based;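 further: potency for reduction of bacterial viability or growth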
Streptokinase A = target: T3, Streptokinase A (Streptococcus pyogenes serotype M1, UniProt P10520); assay: viability-normalized secreted streptokinase activity reduction – plasminogen activation absorbance, OD405, dose response (AID 1914); format: functional, Streptococcus pyogenes M1 GAS;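 further: secreted streptokinase activity via plasminogen activation per viability signal from cell pellet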
T3 sequence (P10520 whole entry): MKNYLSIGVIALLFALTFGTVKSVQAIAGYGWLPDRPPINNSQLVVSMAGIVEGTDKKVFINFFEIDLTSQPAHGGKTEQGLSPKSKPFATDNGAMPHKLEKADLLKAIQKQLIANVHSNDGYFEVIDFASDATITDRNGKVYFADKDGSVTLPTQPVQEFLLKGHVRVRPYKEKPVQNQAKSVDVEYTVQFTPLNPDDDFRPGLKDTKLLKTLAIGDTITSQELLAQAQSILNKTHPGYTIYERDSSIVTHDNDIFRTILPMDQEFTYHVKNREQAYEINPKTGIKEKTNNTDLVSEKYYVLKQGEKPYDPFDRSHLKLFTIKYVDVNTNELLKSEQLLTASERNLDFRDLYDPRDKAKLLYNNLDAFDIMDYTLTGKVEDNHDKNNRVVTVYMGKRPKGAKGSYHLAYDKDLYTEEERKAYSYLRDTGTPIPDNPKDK

[17] = luciferase reporter signal suppression in cells – H4 neuroglioma cells, luminescence, dose response (AID 1990); format: functional, cell-based
[18] = Luminescence Cell-Based Dose Response HTS to Identify Inhibitors of 5'UTR Stem-Loop Driven Prion Protein mRNA Translation in H4 Neuroglioblastoma Cells. [Related pubchem assays: 1827 (Project Summary), 1813 (Primary HTS)]; format: functional
[19] = alpha-synuclein stem-loop luciferase translation blockers – H4 neuroglioma cells, luminescence, confirmation (AID 1988); format: functional, cell-based
[20] = system: Streptococcus sp. 'group A'; assay: Streptococcus pyogenes SK(-)GAS viability under kanamycin – luminescence, BacTiterGlo, confirmation, counter-screen for streptokinase expression inhibitor project, dose response (AID 1900); format: functional, organism-based
[21] = target: Induced myeloid leukemia cell differentiation protein Mcl-1 (Homo sapiens, UniProt Q07820); format: functional
Induced myeloid leukemia cell differentiation protein Mcl-1, sequence (Q07820 whole entry): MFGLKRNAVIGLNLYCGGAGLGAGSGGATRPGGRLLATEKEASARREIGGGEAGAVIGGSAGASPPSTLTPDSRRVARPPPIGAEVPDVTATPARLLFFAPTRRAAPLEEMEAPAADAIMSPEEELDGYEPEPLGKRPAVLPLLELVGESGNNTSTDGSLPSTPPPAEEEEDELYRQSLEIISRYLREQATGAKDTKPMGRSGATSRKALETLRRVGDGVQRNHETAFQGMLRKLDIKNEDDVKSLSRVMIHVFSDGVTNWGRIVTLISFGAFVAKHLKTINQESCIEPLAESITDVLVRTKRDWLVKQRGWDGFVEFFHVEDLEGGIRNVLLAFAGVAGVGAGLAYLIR

O=C(/C=C/c1ccc([N+](=O)[O-])cc1)c1cccnc1
EC50 [1]: 5.8 µM (active) | EC50 [2]: 4.4 µM (active)

CCc1nc(SCC(=O)c2ccccc2)c2ccccc2n1
IC50 [3]: > 66 µM (inactive) | EC50 (cells [4]): > 350 µM (not active) | IC50 [5]: > 66 µM (inactive) | EC50 (cells [6]): > 350 µM (not active)

CCOC(=O)c1c(C)[nH]c(C(=O)N/N=C/c2ccc(Br)cc2)c1C
EC50 (BJ [7]): 0.733 µM (inconclusive) | EC50 (BJ [8]): 35.1 µM (inconclusive) | IC50 [9]: > 80 µM (inactive) | EC50 [10]: 0.387 µM (active) | EC50 (BJ [11]): 0.327 µM (active)

CCCC#Cc1cnc2c(c1)C(=O)N([C@@H](C)CO)C[C@H](C)[C@H](CN(C)C(=O)Nc1cccc(F)c1)O2
AC50 [12]: 8.83 µM (active)

O=C(N/N=C/c1cc(Br)c(Br)o1)c1cccnc1
IC50 [3]: 44.3 µM (inactive) | IC50 [5]: > 66 µM (inactive)

CO[C@H]1CN(C)C(=O)c2cc(NC(=O)C3CC3)ccc2OC[C@H](C)N(Cc2cccc(F)c2)C[C@H]1C
AC50 [12]: 6.05 µM (active)

C[C@]12CC[C@H]3[C@@H](CC[C@]4(O)C[C@@H](O)CC[C@]34C=O)[C@@]1(O)CC[C@@H]2C1=CC(=O)OC1 [STROPHANTHIDIN]
CC50 (Vero): 1.22 µM (active) | AC50 [13]: 0.582 µM (active) | AC50 (Paired box protein Pax-8): 2.22 µM (active) | IC50 [9]: > 80 µM (inactive)

CO[C@H]1CN(C)C(=O)c2cc(NC(=O)C3CC3)ccc2OC[C@@H](C)N(Cc2cc(F)ccc2F)C[C@H]1C
AC50 [12]: 6.09 µM (active)

Cn1cc([N+](=O)[O-])c(C(=O)Nc2cc(Oc3cccnc3)cc([N+](=O)[O-])c2)n1
EC50 [1]: 1.24 µM (active) | IC50 [14]: 15.3 µM (not active) | EC50 [2]: 1.02 µM (active)

Cc1ccc(S(=O)(=O)NCc2ccncc2)cc1C
AC50 [15]: 2.43 µM (active) | AC50 [16]: 0.585 µM (active) | AC50 (INS1): 3.06 µM (active) | IC50 [9]: > 80 µM (inactive)

COc1ccc(-c2c/c(=N\c3nc(-c4ccccc4)c(C)s3)c3ccccc3o2)cc1O
EC50 (Streptococcus): > 150 µM (not active) | EC50 (Streptokinase A): 15.5 µM (active) | CC50 (Vero): 3.22 µM (active) | EC50 (BJ [7]): 1.82 µM (active) | EC50 [17]: 5.76 µM (inconclusive) | EC50 (BJ [8]): 3.22 µM (active) | EC50 [18]: 5.8 µM (active) | EC50 [10]: 1.9 µM (active) | EC50 (BJ [11]): 1.71 µM (active) | EC50 [19]: 7.32 µM (active) | EC50 [20]: 4.5 µM (active)

Cc1cc(N(CCO)CCO)ccc1C(c1ccc(N(CCO)CCO)cc1C)c1ccccc1Cl
IC50 [21]: 2.71 µM (active)

O=c1c2c3nc4ccccc4nc3n(Cc3ccccc3)c2ncn1Cc1ccco1
IC50 [21]: 6.14 µM (not active)

Cc1nc(-n2ncc(C#N)c2N)c2c3c(sc2n1)CCC3
EC50 [1]: 24.8 µM (active) | EC50 [2]: 32 µM (active)

CCOC(=O)N1CCN(C(=O)C2CCCN(Cc3nc(-c4ccc(Cl)cc4)oc3C)C2)CC1 (stereo not drawn)
IC50 [9]: > 80 µM (inactive)
